Assay results from patent US9615577B2, “Herbicidally active cyclic dione compounds, or derivatives therefor, substituted by a phenyl which has an alkynyl-containing substituent” (Syngenta Limited, priority 2012, dated 2017).

Experiments:
Test in all cases: Biological Example 3 glasshouse assay for herbicidal activity, using various adjuvant systems, post-emergence
Type in all cases: in vivo
Setaria faberi (SETFA) = details: 8 g/ha, 14 DAA, 0.5% v/v Adigor + 1.0% v/v AMS + 12.5% v/v IPA
Method: (§1) Post-emergence foliar spray application, 200 L/ha, usually one or two replicates for the weeds (depending on application rate), and two replicates for soybean.
(§2) Standard warm conditions (tropical), in glasshouse. Specifically, the glasshouse bay conditions are 24° C./18° C. day/night; 16/8 hours light/dark; 65% humidity.
(§3) The herbicidal application takes place at the following growth stages for plants which include inter alia one or more of the following plants (usually the herbicidal application takes place on at least the following six plants: DIGSA, ELEIN, SETFA, GLXMA Nikko, and GLXMA TMG133, and either BRADC or BRAPP):
Setaria faberi (SETFA)—growth stage 12 or 13
(§4) Each test Compound is applied with one of the following adjuvant systems (all percentages are final concentrations in the aqueous spray mixture):
(§5) Adjuvant system 1: 0.5% v/v Adigor™ *, 1.0% v/v AMS (ammonium sulphate) and 12.5% v/v IPA (isopropyl alcohol).
(§6) Adjuvant system 2: 0.5% v/v Adigor™ * and 12.5% v/v IPA (isopropyl alcohol).
(§7) Adjuvant system 3: 0.5% v/v Hexamoll™ DINCH **, 1.0% v/v AMS (ammonium sulphate) and 12.5% v/v IPA (isopropyl alcohol).
Seeds of the weed plants, typically including inter alia [either Brachiaria decumbens (BRADC) or Brachiaria platyphylla (BRAPP)], Digitaria sanguinalis (DIGSA), Eleusine indica (ELEIN), Setaria faberi (SETFA) are sown in seed trays (troughs) containing clay loam soil (pH 7.0, 2.2% organic matter, “Trough Mix A”); and soybean seed is sown in pots containing the same soil with 3 soybean seedlings per pot. The plants are sprayed with the test herbicide when they reach the growth stages mentioned above.
The test herbicidal solutions are prepared by mixing the appropriate aliquots of the test substance(s) and the adjuvant system indicated above *** in deionised water to give the desired treatment concentration. […]
(§8) A visual assessment of the % herbicidal damage is made 7 and 14 Days After herbicide Application (DAA) (or, in a minority of cases, 7 and 15 DAA), and the results are recorded as % visual herbicidal damage where 0%=no damage to plants and 100%=plant totally killed. […]

[1] = test system: Glycine max (GLXMA, soybean) cultivar “Nikko”; details: 120 g/ha, 14 or 15 DAA, adjuvant system per compound
Method: as §1, §2, §3
Glycine max (GLXMA, soybean) cultivar “Nikko”—growth stage: 1st trifoliate
as §4, §5
Adjuvant system 2: 0.5% v/v Adigor™ * and 12.5% v/v IPA (isopropyl alcohol). […]
as §8

[2] = test system: Digitaria sanguinalis (DIGSA); details: 8 g/ha, 14 DAA, 0.5% v/v Adigor + 1.0% v/v AMS + 12.5% v/v IPA
Method: as §1, §2, §3
Digitaria sanguinalis (DIGSA)—growth stage 12 or 13
as §4, §5, §6, §7
Seeds of the weed plants, typically including inter alia [either Brachiaria decumbens (BRADC) or Brachiaria platyphylla (BRAPP)], Digitaria sanguinalis (DIGSA), Eleusine indica (ELEIN), Setaria faberi (SETFA) are sown in seed trays (troughs) containing clay loam soil (pH 7.0, 2.2% organic matter, “Trough Mix A”); and soybean seed is sown in pots containing the same soil with 3 soybean seedlings per pot. The plants are sprayed with the test herbicide when they reach the growth stages mentioned above. […]
as §8

[3] = test system: Glycine max (GLXMA, soybean) cultivar “TMG133”; details: 120 g/ha, 14 or 15 DAA, adjuvant system per compound
Method: as §1, §2, §3
Glycine max (GLXMA, soybean) cultivar “TMG133”—which is Roundup Ready™glyphosate-tolerant soybean cultivar TMG133 (typically available from Monsanto in Brazil)—growth stage: 1st trifoliate.
Each test Compound is applied with one of the following adjuvant systems (all percentages are final concentrations in the aqueous spray mixture): […]
as §8
Glycine max (GLXMA, soybean) cultivar “TMG133” is Roundup Ready™ glyphosate-tolerant soybean cultivar TMG133, and is typically available from Monsanto in Brazil.

| Compound | percentage control of Setaria faberi (SETFA) (Setaria faberi (SETFA)) | percentage phytotoxicities on Glycine max (GLXMA, soybean) cultivar “Nikko” [1] | percentage control of Digitaria sanguinalis (DIGSA) [2] | percentage phytotoxicities on Glycine max (GLXMA, soybean) cultivar “TMG133” [3] |
| --- | --- | --- | --- | --- |
| CC#Cc1cc(Cl)c(C2C(=O)CC3(CCOCC3)CC2=O)c(OC)c1 [Compound A-20, 9-(2-Chloro-6-methoxy-4-prop-1-ynyl-phenyl)-3-oxa-spiro[5.5]undecane-8,10-dione] | 98% | 85% | 100% | 85% |
| CC#Cc1cc(C)c(C2C(=O)CC(CCSC)CC2=O)c(C)c1 (stereo not drawn) [Compound A-21, 2-(2,6-Dimethyl-4-prop-1-ynyl-phenyl)-5-(2-methylsulfanyl-ethyl)cyclohexane-1,3-dione] | – | 85% | – | 85% |
